# According to US9765092B2, “Tricyclic piperidine compounds” (ACTELION PHARMACEUTICALS LTD, priority 2013, dated 2017):
# Target: human TPH1 (Homo sapiens (Human), UniProt P17752)
# Experiment: Biochemical in vitro assay using fluorescence readout (TPH1 inhibition)
# Conditions: human TPH1, fluorescence readout
# Sequence of human TPH1 (P17752 whole entry): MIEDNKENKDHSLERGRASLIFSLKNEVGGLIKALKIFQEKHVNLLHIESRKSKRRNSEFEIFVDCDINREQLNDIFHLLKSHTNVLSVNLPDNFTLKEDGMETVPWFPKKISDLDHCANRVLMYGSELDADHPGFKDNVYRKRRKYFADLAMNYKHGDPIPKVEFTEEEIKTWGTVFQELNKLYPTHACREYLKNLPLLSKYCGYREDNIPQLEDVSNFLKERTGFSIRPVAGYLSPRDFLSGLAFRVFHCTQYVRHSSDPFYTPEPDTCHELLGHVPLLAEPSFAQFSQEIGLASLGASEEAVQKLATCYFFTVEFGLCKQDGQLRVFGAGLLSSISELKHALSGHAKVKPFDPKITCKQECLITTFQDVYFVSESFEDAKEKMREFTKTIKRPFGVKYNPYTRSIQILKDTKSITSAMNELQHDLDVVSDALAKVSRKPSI
row,SMILES,IC50
1,"Cc1cnc([C@H]2c3c(nc4sc(C)nn34)CCN2C(=O)COc2ccc(N3CCCS3(=O)=O)nc2Cl)c(F)c1 [Example 1.31.17, (R)-2-((2-chloro-6-(1,1-dioxidoisothiazolidin-2-yl)pyridin-3-yl)oxy)-1-(5-(3-fluoro-5-methylpyridin-2-yl)-2-methyl-7,8-dihydro-[1,3,4]thiadiazolo[2′,3′:2,3]imidazo[4,5-c]pyridin-6(5H)-yl)ethanone]",8 nM
2,"CCc1nc(Cl)ncc1OCC(=O)N1CCc2nc3sc(C)nn3c2[C@@H]1c1ncc(C)cc1F [Example 1.31.18, (R)-2-((2-chloro-4-ethylpyrimidin-5-yl)oxy)-1-(5-(3-fluoro-5-methylpyridin-2-yl)-2-methyl-7,8-dihydro-[1,3,4]thiadiazolo[2′,3′:2,3]imidazo[4,5-c]pyridin-6(5H)-yl)ethanone]",49 nM
3,"CCc1nc(NS(C)(=O)=O)ncc1OCC(=O)N1CCc2nc3sc(C)nn3c2[C@@H]1c1ncc(C)cc1F [Example 1.31.19, (R)-N-(4-ethyl-5-(2-(5-(3-fluoro-5-methylpyridin-2-yl)-2-methyl-7,8-dihydro-[1,3,4]thiadiazolo[2′,3′:2,3]imidazo[4,5-c]pyridin-6(5H)-yl)-2-oxoethoxy)pyrimidin-2-yl)methanesulfonamide]",51 nM
4,"COc1nc(NS(C)(=O)=O)ccc1OCC(=O)N1CCc2nc3sc(C)nn3c2[C@@H]1c1ncc(C)cc1F [Example 1.31.20, (R)-N-(5-(2-(5-(3-fluoro-5-methylpyridin-2-yl)-2-methyl-7,8-dihydro-[1,3,4]thiadiazolo[2′,3′:2,3]imidazo[4,5-c]pyridin-6(5H)-yl)-2-oxoethoxy)-6-methoxypyridin-2-yl)methanesulfonamide]",77 nM
5,"Cc1nn2c3c(nc2s1)CCN(C(=O)COc1ccc(N2CCOCC2)nc1Cl)C3c1scnc1C (stereo not shown) [Example 1.32.1, 2-((2-chloro-6-morpholinopyridin-3-yl)oxy)-1-(2-methyl-5-(4-methylthiazol-5-yl)-7,8-dihydro-[1,3,4]thiadiazolo [2′,3′:2,3]imidazo[4,5-c]pyridin-6(5H)-yl)ethanone]",2 nM
6,"Cc1nn2c3c(nc2s1)CCN(C(=O)COc1ccc(C#N)cc1Cl)C3c1scnc1C (stereo not shown) [Example 1.32.2, 3-chloro-4-(2-(2-methyl-5-(4-methylthiazol-5-yl)-7,8-dihydro-[1,3,4]thiadiazolo[2′,3′:2,3]imidazo[4,5-c]pyridin-6(5H)-yl)-2-oxoethoxy)benzonitrile]",83 nM
7,"Cc1nn2c3c(nc2s1)CCN(C(=O)COc1ccc(C(F)(F)F)cc1Cl)C3c1scnc1C (stereo not shown) [Example 1.32.3, 2-(2-chloro-4-(trifluoromethyl)phenoxy)-1-(2-methyl-5-(4-methylthiazol-5-yl)-7,8-dihydro-[1,3,4]thiadiazolo [2′,3′:2,3]imidazo[4,5-c]pyridin-6(5H)-yl)ethanone]",10 nM
8,"Cc1nn2c3c(nc2s1)CCN(C(=O)COc1ccc(C(F)(F)F)nc1Cl)C3c1scnc1C (stereo not shown) [Example 1.32.4, 2-((2-chloro-6-(trifluoromethyl)pyridin-3-yl)oxy)-1-(2-methyl-5-(4-methylthiazol-5-yl)-7,8-dihydro-[1,3,4]thiadiazolo [2′,3′:2,3]imidazo[4,5-c]pyridin-6(5H)-yl)ethanone]",21 nM
9,"Cc1nn2c3c(nc2s1)CCN(C(=O)COc1ccc(N2CCOCC2)nc1Cl)C3c1ncc(Cl)cc1F (stereo not shown) [Example 1.33.1, 1-(5-(5-chloro-3-fluoropyridin-2-yl)-2-methyl-7,8-dihydro[1,3,4]thiadiazolo[2′,3′:2,3]imidazo[4,5-c]pyridin-6(5H)-yl)-2-((2-chloro-6-morpholinopyridin-3-yl)oxy)ethanone]",2 nM
10,"Cc1nn2c3c(nc2s1)CCN(C(=O)COc1ccc(N2CC(F)(F)C2)nc1Cl)C3c1ncc(Cl)cc1F (stereo not shown) [Example 1.33.2, 1-(5-(5-chloro-3-fluoropyridin-2-yl)-2-methyl-7,8-dihydro-[1,3,4]thiadiazolo[2′,3′:2,3]imidazo[4,5-c]pyridin-6(5H)-yl)-2-((2-chloro-6-(3,3-difluoroazetidin-1-yl)pyridin-3-yl)oxy)ethanone]",4 nM
